# Patent publication US20240390490A1, “PHARMACEUTICAL COMPOSITIONS FOR THE TREATMENT OF CANCERS” (Rutgers, The State University of New Jersey, priority 2021, published 2024)
# How the values were obtained:
# [1] = test system: NK cells, monocytes and macrophages in PBMC and spleen; experiment: Flow cytometry of immune cells in PBMC and spleen of xenografted rats; format: in vivo, rat; settings: for NK cell numbers in PBMC and spleen: CD161a+ NK cells, flow cytometry
# Protocol: Peripheral blood mononuclear cells (PBMC) from control and drug-treated rats were isolated from freshly obtained EDTA whole blood by density gradient purification (Lymphoprep™, Stemcell Technologies™, Vancouver, BC, Canada) using 15 mL SepMate™ tubes (Stemcell Technologies™) as per the manufacture's protocol. The pelleted cells (PBMC) were counted in a hemocytometer and assayed for viability by the trypan blue dye exclusion method. PBMC cell pellets from 3 animals in each group were pooled, washed three times with PBS, and finally resuspended in 2 ml RPMI medium containing 10% heat-inactivated FBS (HI-FBS) and used for NK cell cytotoxicity. Aliquots of PBMC were frozen down at −80° C. by resuspending cells in freezing media containing HI-FBS and 10% DMSO in aliquots of 5-10×10^6 cells/mL using Nalgene Mr. Frosty Cryo 1° C. freezing containers (Thermo Fisher Scientific) before storage in liquid nitrogen. For flow cytometric analysis, frozen PBMC was thawed and resuspended in RPMI-1640 and was evaluated for viability by trypan blue, and all were […], then washed with PBS before starting flow cytometer experiments.
# (§1) Tumor-infiltrating immune cells were collected from MDA-MB-231 cell xenograft tumors to examine and compare the immune cell population among control and drug-treated animals. Briefly, single-cell suspensions of tumor tissue were achieved by mincing the tissue with a scalpel blade using a crisscross method, ground with 1-ml of ACK lysing buffer to remove red blood cells. The cell suspensions were filtered through a 70-micron sieve and then washed with PBS. Cells from the tumor were collected and dispersed with 100 μl of PBS and stained by the addition of fluorescence-conjugated antibodies. For flow cytometry experiments, single-cell suspension derived from tumors, PBMC, and splenocytes were used to characterize the immune cell population. Fluorophore-conjugated antibodies were used to detect surface markers of specific cell types and markers are as follows: for NK cells (CD161a (10/78)), tissue macrophage (RT1B (OX-6)), dendritic cells (CD103 (OX-62)), peripheral monocytes (CD11b (ED8)), B cells (CD45RA (OX-33)), and DAPI (Sigma) was used to exclude dead cells.
# Immune cells from the tumor, PBMC, and splenocyte samples were examined by following the gating strategy as described below. First, side scatter area (SSC-A) versus forward scatter area (FSC-A) were used to exclude cellular debris, then forward scatter height (FSC-H) versus FSC-A were used to select single cells. […] Additional negative controls (isotype control and fluorescence minus one (FMO)) were also used to determine any non-specific binding in the present study. The data collected from each sample were exported and analyzed using FlowJo™ version 10.7.
# [2] = test system: NK cells and macrophages in tumor tissues; experiment: Immunocytochemistry and flow cytometry of tumor-infiltrating immune cells; format: in vivo, rat
# Protocol: (§2) Thin paraffin sections (5 μm) of tumors were stained using the ABC Elite Vectastain Kit (Vector Labs) according to the manufacturer's instructions using various primary antibodies. Details of all primary antibodies used are described above. In addition, cell proliferation-associated antigen (Ki-67; 1:200) were purchased from Abcam. After the primary antibody incubation and PBS wash, sections were incubated with peroxidase-coupled anti-rabbit Ig ImmPRESS reagent (Vector Laboratories, Inc.). Antigen localization was achieved by using the 3,3′-diaminobenzidine-peroxidase reaction, and sections were dehydrated, and cover slipped. To evaluate the immunohistochemical staining, sections were photographed using a Nikon-TE 2000 inverted microscope. Intensity of staining was categorized as negative and strongly positive (27). Brown-stained spots are immuno positive cells. Data are means±SEM obtained from 3 serial sections of 5 to 6 animals in each group.
# as §1
# Immune cells from the tumor, PBMC, and splenocyte samples were examined by following the gating strategy as described below. First, side scatter area (SSC-A) versus forward scatter area (FSC-A) were used to exclude cellular debris, then forward scatter height (FSC-H) versus FSC-A were used to select single cells. Single cells were sub-gated using DAPI viability dye and a further live cell population was used to select markers. Expression of a particular cell surface marker in a specific population of cells was identified and represented as single parameter histograms. Unstained cells and compensation beads (BD Biosciences, CA) were used to set voltages and create single stain negative and positive controls. Additional negative controls (isotype control and fluorescence minus one (FMO)) were also used to determine any non-specific binding in the present study. The data collected from each sample were exported and analyzed using FlowJo™ version 10.7.
# [3] = test system: MDA-MB-231-cell-derived xenografts; experiment: Histopathology, immunohistochemistry and western blot of xenograft tumors; format: in vivo, rat; settings: for level of E-cadherin in tumors / level of N-cadherin in tumors / levels of Snail, Slug, and Twist in tumors: immunoblotting; for level of CC3 in tumor tissue / levels of Bcl-xL and Bcl-2 in tumor tissue: western blot
# Protocol: At the end of the experiment, a portion of tumor tissues was fixed in 10% neutral buffered formalin overnight and embedded in paraffin, was cut into 5-μm-thick sections, and stained with H&E according to previous publications (8). Representative areas of tumor were analyzed for the presence of tumor cells and photographs were captured under a light microscope (20× magnification) as previously described.
# For protein analyses, tumor tissues from in vivo experiments, enriched NK cells from the spleen, and NK-92 MI cancer cell co-incubated samples were lysed with a buffer containing protease and phosphatase inhibitors (25 mM Tris-HCl, pH 7.4; 150 mM NaCl; 1% Nonidet P-40; 1 mM EDTA; and 5% glycerol with Pierce Halt Protease Inhibitor). Protein ([…]) from total lysate was loaded and separated on a 4-20% SDS-PAGE and transferred overnight to polyvinylidene difluoride membranes. Membranes were incubated with primary Ab for 12 hours at 4° C. in blocking buffer, 5% w/v nonfat dry milk in TBS, and 0.1% Tween 20. The following primary antibodies were purchased from Santa Cruz Biotechnology (Santa Cruz, CA): anti-perforin rabbit polyclonal (1:250), anti-granzyme B mouse monoclonal (1:200), anti-IFN-γ mouse monoclonal (1:250), anti-Snail (1:200), anti-Slug (1:200), and anti-Twist. Anti-E-cadherin (1:250), anti-N-cadherin (1:250), and anti-NKG2D goat polyclonal (1:500) were all from Abcam (Cambridge, MA). Membranes were washed and incubated with peroxidase-conjugated secondary Abs (1:5000; Vector Laboratories) for 1 hour at room temperature. Membranes were incubated with ECL western blot chemiluminescence reagent (Pierce) and exposed to x-ray film, which was developed, and densitometry was performed using Image J analysis software (National Institutes of Health). Each protein was normalized to corresponding intensities for β-actin.
# as §2
# [4] = test system: MDA-MB-231, MDA-MB-468, and T47D cells; experiment: Transwell cell migration assay; format: cell-based, human; settings: 100 μM, 12 hours
# Protocol: Cell migration assay was performed following the procedure described previously (26). In brief, the upper insert chambers (8-μm pore polycarbonate membrane) were seeded with cells at a density of 5×10^4 cells (cell numbers established by preliminary experiments) per well in the appropriate serum-free medium. A 10% FBS-containing media was then added to the lower chamber to serve as a chemoattractant. […] The photographs were used to count the number of migrated cells in Adobe Photoshop.
SMILES,NK cell numbers in PBMC and spleen [1],percentage of CD161+ NK cells in the tumor tissues [2],percentage of CD163+ macrophages in the tumor tissues [2],level of E-cadherin in tumors [3],level of N-cadherin in tumors [3],"levels of Snail, Slug, and Twist in tumors [3]",level of CC3 in tumor tissue [3],levels of Bcl-xL and Bcl-2 in tumor tissue [3],cell migration [4],macrophage numbers in spleen ([1]; RT1B+ macrophages)
"CC1(C)SSC(C)(C)[C@@H](NC(=O)[C@@H](N)Cc2ccc(O)cc2)C(=O)NCC(=O)N[C@@H](Cc2ccccc2)C(=O)N[C@H]1C(=O)O [DPDPE, (D-Pen^2, D-Pen^5)-enkephalin]",increased,increased,decreased,increase,decrease,reduced,increased,decreased,significant but moderate inhibitory effects,
"O=C1CC[C@@]2(O)[C@H]3Cc4ccc(O)c5c4[C@@]2(CCN3CC2CC2)[C@H]1O5 [NTX, 17-(cyclopropylmethyl)-4,5α-epoxy-3,14-dihydroxymorphinan-6-one]",increased,increased,decreased,,,,increased,decreased,significant but moderate inhibitory effects,
"CC(C)NCC(O)COc1cccc2ccccc12 (stereo not shown) [PRO, propranolol]",increased,increased,decreased,increase,decrease,reduced,increased,decreased,significant but moderate inhibitory effects,reduced
